target: T1, ENPP1 (Homo sapiens, UniProt P22413); assay: Capillary electrophoresis-based NPP assay with ATP as a substrate (ENPP1 inhibition, Ki); format: biochemical; conditions: bin of Table 2; Ki from IC50 by Cheng-Prusoff, 400 μM ATP
T1 sequence (P22413 1-925): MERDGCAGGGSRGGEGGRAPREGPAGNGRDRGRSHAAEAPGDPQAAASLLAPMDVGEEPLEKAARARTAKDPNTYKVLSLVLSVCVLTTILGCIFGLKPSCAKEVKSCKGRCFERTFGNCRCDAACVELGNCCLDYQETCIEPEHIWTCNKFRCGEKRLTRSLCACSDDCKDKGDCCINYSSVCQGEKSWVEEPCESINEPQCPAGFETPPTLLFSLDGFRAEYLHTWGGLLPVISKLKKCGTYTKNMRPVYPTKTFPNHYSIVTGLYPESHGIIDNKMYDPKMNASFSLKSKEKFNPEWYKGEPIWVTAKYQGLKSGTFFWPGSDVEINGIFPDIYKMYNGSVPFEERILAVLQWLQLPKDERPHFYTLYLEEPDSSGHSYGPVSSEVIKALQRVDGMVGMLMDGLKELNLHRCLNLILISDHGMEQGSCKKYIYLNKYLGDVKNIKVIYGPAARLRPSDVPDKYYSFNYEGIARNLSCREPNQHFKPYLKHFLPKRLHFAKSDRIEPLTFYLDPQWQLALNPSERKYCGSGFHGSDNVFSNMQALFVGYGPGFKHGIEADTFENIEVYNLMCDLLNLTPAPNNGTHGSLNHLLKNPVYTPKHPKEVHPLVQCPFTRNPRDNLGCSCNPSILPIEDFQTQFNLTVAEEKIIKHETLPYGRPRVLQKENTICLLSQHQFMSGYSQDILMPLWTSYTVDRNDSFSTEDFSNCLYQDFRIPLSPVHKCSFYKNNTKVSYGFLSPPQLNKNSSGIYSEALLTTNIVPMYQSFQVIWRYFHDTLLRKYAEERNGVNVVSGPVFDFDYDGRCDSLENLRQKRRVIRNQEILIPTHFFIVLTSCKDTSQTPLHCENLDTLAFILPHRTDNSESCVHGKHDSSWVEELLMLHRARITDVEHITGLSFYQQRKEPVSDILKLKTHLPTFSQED
Procedure: Here, a Capillary Electrophoresis based method was used to determine the IC50 values for ENPP1 Inhibitors for ENNP1 protein.
The inhibitors synthesized were assessed for ENPP1 inhibitory potency against the natural substrate ATP. The enzyme inhibition assays were performed in 10 mM 2-(N-cyclohexylamino)-ethanesulfonic acid (CHES) buffer (pH 10.0) including 1 mM MgCl2, 2 mM CaCl2), and 400 μM of ATP, with different inhibitor concentrations. The reaction mixture was incubated with 20 ng human NPP1 at 37° C. for 30 min in a final volume of 100 μL, and the reactions were stopped by heating at 90° C. for 3 min. Finally, the reaction mixtures were directly measured by capillary electrophoresis (CE). The CE instrumentation and operating conditions were as follows: P/ACE MDQ capillary electrophoresis system (Beckman Instruments, Fullerton, Calif., USA) with a DAD detection system, polyacrylamide-coated capillaries of 40 cm effective length×[…] (id) obtained from CS Chromatographie GmbH (Langerwehe, Germany), 50 mM phosphate buffer (pH 6.5) as running buffer, electrokinetic injection (−6 kV, 60 s), separation voltage of −15 kV. The amounts of AMP produced were measured at 260 nm. Data collection and peak area analysis were performed by 32 Karat software obtained from Beckman Coulter (Fullerton, Calif., USA).
The IC50 values of test compounds were calculated by plotting data in the program Prism 5.0, and the Ki values were calculated from the IC50 values with the Cheng-Prusoff equation (Tables 2-4).

Ki [nM]	SMILES
≤ 100	CCOc1nc(NC(=O)[C@@H](CC)Sc2nc(N)nc3nc[nH]c23)ncc1Br [Compound 712]
≤ 100	Nc1nc(SCC(=O)Nc2ccc3c(c2)OCO3)c2[nH]cnc2n1 [Compound 78]
≤ 100	CCOc1nc(NC(=O)[C@@H](Sc2nc(N)nc3nc[nH]c23)C(C)C)ncc1Br [Compound 681]
≤ 100	COc1nc(NC(=O)[C@H](Cc2ccccc2)Sc2nc(N)nc3nc[nH]c23)ncc1Cl [Compound 554]
≤ 100	Cc1nc2cc(NC(=O)CSc3nc(N)nc4nc[nH]c34)ccc2s1 [Compound 182]
≤ 100	COc1ccnc(NC(=O)CSc2nc(N)nc3nc[nH]c23)n1 [Compound 201]
≤ 100	COc1ccnc(NC(=O)[C@H](C)Sc2nc(N)nc3nc[nH]c23)n1 [Compound 487]
≤ 100	Nc1nc(S[C@@H](CCc2ccccc2)C(=O)Nc2ccc(O)c(C(=O)O)c2)c2[nH]cnc2n1 [Compound 485]
≤ 100	COc1ccc(NC(=O)CSc2nc(N)nc3nc[nH]c23)cc1OC [Compound 46, 2-((2-amino-7H-purin-6-yl)thio)-N-(3,4-dimethoxyphenyl)acetamide]
≤ 100	CC[C@@H](Sc1nc(N)nc2nc[nH]c12)C(=O)Nc1ncc(Br)c(OC)n1 [Compound 508]
≤ 100	COc1ccc(NC(=O)CSc2nc(N)nc3nc[nH]c23)cc1Cl [Compound 128]
≤ 100	COc1cc(NC(=O)[C@@H](Sc2nc(N)nc3nc[nH]c23)C(C)C)ccc1O [Compound 270]
≤ 100	CCOc1nc(NC(=O)[C@H](CC)Sc2nc(N)nc3nc[nH]c23)ncc1Cl [Compound 677]
≤ 100	COc1nc(NC(=O)[C@@H](Cc2ccccc2)Sc2nc(N)nc3nc[nH]c23)ncc1Cl [Compound 551]
≤ 100	COc1ccnc(NC(=O)C(C)(C)Sc2nc(N)nc3nc[nH]c23)n1 [Compound 504]
≤ 100	CC[C@H](Sc1nc(N)nc2nc[nH]c12)C(=O)Nc1ccc(OC)c(OC)n1 [Compound 472]
≤ 100	CCC(Sc1nc(N)nc2nc[nH]c12)C(=O)Nc1ccc(O)c(C(=O)O)c1 (centres unmarked) [Compound 249]
≤ 100	COc1ccnc(NC(=O)[C@@H](CCc2ccccc2)Sc2nc(N)nc3nc[nH]c23)n1 [Compound 507]
≤ 100	COc1ccc(C(=O)NCCSc2nc(N)nc3nc[nH]c23)cc1OC [Compound 148, N-(2-((2-amino-7H-purin-6-yl)thio)ethyl)-3,4-dimethoxybenzamide]
≤ 100	CC[C@H](Sc1nc(N)nc2nc[nH]c12)C(=O)Nc1ncc(Cl)c(OC)n1 [Compound 609]
≤ 100	COc1ccnc(NC(=O)[C@H](CCc2ccccc2)Sc2nc(N)nc3nc[nH]c23)n1 [Compound 506]
≤ 100	COc1cc(NC(=O)[C@H](Sc2nc(N)nc3nc[nH]c23)c2ccccc2)ccc1O [Compound 329]
≤ 100	COc1ccc(NC(=O)[C@H](C)Sc2nc(N)nc3nc[nH]c23)nc1OC [Compound 491]
≤ 100	Nc1nc(SCC(=O)Nc2ccc3ncccc3c2)c2[nH]cnc2n1 [Compound 184]
≤ 100	CCOc1nc(NC(=O)[C@@H](Sc2nc(N)nc3nc[nH]c23)C(C)C)ncc1F [Compound 679]
≤ 100	COc1ccnc(NC(=O)CSc2nc(N)nc3nc[nH]c23)c1 [Compound 109]

Ki [nM]	SMILES
≤ 100	COc1nc(NC(=O)[C@@H](Cc2ccccc2)Sc2nc(N)nc3nc[nH]c23)ncc1Br [Compound 552]
≤ 100	COc1nc(NC(=O)C2(Sc3nc(N)nc4nc[nH]c34)CCC2)ncc1Br [Compound 558]
≤ 100	CC(=O)c1cc(NC(=O)CSc2nc(N)nc3nc[nH]c23)ccc1O [Compound 199]
≤ 100	COc1ccnc(NC(=O)[C@@H](Sc2nc(N)nc3nc[nH]c23)C(C)C)n1 [Compound 510]
≤ 100	COc1nc(NC(=O)[C@@H](Sc2nc(N)nc3nc[nH]c23)C(C)C)ncc1Br [Compound 515]
≤ 100	CC[C@@H](Sc1nc(N)nc2nc[nH]c12)C(=O)Nc1cc(OC)ccn1 [Compound 471]
≤ 100	Nc1nc(SCC(=O)Nc2ccc(Cl)c(O)c2)c2[nH]cnc2n1 [Compound 207]
≤ 100	CC[C@H](Sc1nc(N)nc2nc[nH]c12)C(=O)Nc1ccc(O)c(C(=O)O)c1 [Compound 267]
≤ 100	Nc1nc(SCC(=O)Nc2ccc3nccnc3c2)c2[nH]cnc2n1 [Compound 185]
≤ 100	COc1ccnc(NC(=O)[C@@H](C)Sc2nc(N)nc3nc[nH]c23)n1 [Compound 486]
≤ 100	COc1cc(NC(=O)[C@H](CC(C)C)Sc2nc(N)nc3nc[nH]c23)ccc1O [Compound 272]
≤ 100	Nc1nc(SCC(=O)Nc2ccc3ncsc3c2)c2[nH]cnc2n1 [Compound 181]
≤ 100	CCOc1nc(NC(=O)[C@H](CC)Sc2nc(N)nc3nc[nH]c23)ncc1Br [Compound 678]
≤ 100	Nc1nc(SCC(=O)Nc2ccc(O)c(Br)c2)c2[nH]cnc2n1 [Compound 194]
≤ 100	CCOc1nc(NC(=O)[C@H](CC)Sc2nc(N)nc3nc[nH]c23)ncc1F [Compound 673]
≤ 100	COc1nc(NC(=O)[C@H](Sc2nc(N)nc3nc[nH]c23)C(C)C)ncc1Br [Compound 514]
≤ 100	COc1nc(NC(=O)C(C)(C)Sc2nc(N)nc3nc[nH]c23)ncc1F [Compound 529]
≤ 100	CC[C@@H](Sc1nc(N)nc2nc[nH]c12)C(=O)Nc1nc(Cl)cc(OC)n1 [Compound 496]
≤ 100	CC[C@H](Sc1nc(N)nc2nc[nH]c12)C(=O)Nc1nccc(OC)n1 [Compound 435]
≤ 100	COc1ccc(NC(=O)CSc2nc(N)nc3nc[nH]c23)nc1OC [Compound 160]
≤ 100	COc1ccnc(NC(=O)[C@H](Sc2nc(N)nc3nc[nH]c23)C(C)C)n1 [Compound 511]
≤ 100	COc1ccnc(NC(=O)[C@@H](Cc2ccccc2)Sc2nc(N)nc3nc[nH]c23)n1 [Compound 516]
≤ 100	CC[C@@H](Sc1nc(N)nc2nc[nH]c12)C(=O)Nc1ncc(Cl)c(OC)n1 [Compound 608]
≤ 100	COc1ccc(NC(=S)CSc2nc(N)nc3nc[nH]c23)cc1OC [Compound 355]
≤ 100	CC[C@@H](Sc1nc(N)nc2nc[nH]c12)C(=O)Nc1nccc(OC)n1 [Compound 389]

same assay, conditions: bin of Table 4; Ki from IC50 by Cheng-Prusoff, 400 μM ATP

Ki [nM]	SMILES
≥ 1000	Nc1nc(SCC(=O)NCc2ccccc2)c2[nH]cnc2n1 [Compound 103]
≥ 1000	CCOc1ccc(NC(=O)CSc2nc(N)nc3nc[nH]c23)cc1OCC [Compound 84]
≥ 1000	CC(C)(Sc1nc(N)nc2nc[nH]c12)C(=O)Nc1ccc(O)c(C(=O)O)c1 [Compound 251]
≥ 1000	COc1ccc(NC(=O)Cn2nnc3ncccc32)cc1OC [Compound 35]
≥ 1000	COc1cc2ncc(Nc3cc(S(N)(=O)=O)ccc3C)nc2cc1OC [Compound 8]
≥ 1000	COc1ccc(NC(=O)CSc2nc(N)nc3nc[nH]c23)cc1 [Compound 107]
≥ 1000	COc1ccc(NC(=O)Cn2cnc3ncnc(N)c32)cc1OC [Compound 18]
≥ 1000	COc1ccc(NC(=O)CSc2nc(N)nc3ncn(C)c23)cc1OC [Compound 98]
≥ 1000	COc1cc2ncc(SCC(=O)Nc3cc(S(N)(=O)=O)ccc3C)nc2cc1OC [Compound 36]
≥ 1000	COc1ccc(NC(=O)CSc2nc(N)nc3nc[nH]c23)cc1C(=O)O [Compound 144]
≥ 1000	COc1ccc(NC(=O)CSc2ncnc3[nH]cnc23)cc1OC [Compound 45]
≥ 1000	COc1ccc(CNC(=O)CSc2nc(N)nc3nc[nH]c23)cc1OC [Compound 105]
≥ 1000	Nc1nc(SCC(=O)Nc2ccc3c(c2)OC(F)(F)O3)c2[nH]cnc2n1 [Compound 90]
≥ 1000	COc1ccc(NC(=O)Cn2cnc3cnccc32)cc1OC [Compound 11]
